Measured values from US20240335443A1, “IMIDAZOLOPYRIDAZINE OR PYRAZOLOPYRIMIDINE COMPOUNDS AND COMPOSITIONS” (Anrui Biomedical Technology (Guangzhou) Co., Ltd., priority 2021, published 2024).
Structures can show the parent of a compound that is named as a salt. Where two headings read alike, the source gives them in different places.

What was measured:
[1] = target: T1, N-terminal His-tagged TYK2 pseudokinase domain (Homo sapiens, UniProt P29597); experiment: TYK2 JH2 domain SPA binding assay; details: displacement of H3 probe (20 nM), 30 min room temperature; class symbols
T1 construct: the N-terminal His-tagged TYK2 pseudokinase domain; His (N); purchased Pharmaron
Method: TYK2 JH2 Domain Binding Assay
After incubating at room temperature for 30 min, the inhibition was calculated by the displacement of [3H] 3 binding as determined by scintillation counting. Dose-response curves were generated to determine the concentration required to inhibit H3 probe binding by […] (IC50).

[2] = tested on: IL-23 induced STAT3 in HEK-Blue™ IL-23 cells; experiment: IL-23 induced STAT3 QUANTI-Blue reporter assay in HEK-Blue IL-23 cells; format: cell-based; details: IL-23 0.1 ng/mL, SEAP levels, class symbols, read-out: IL23 reporter assay (IC50 nM)
Method: Biological Example 2. IL-23 Induced STAT3 QUANTI-Blue in HEK-Blue™ IL-23 Cells
HEK-Blue™ IL-23 cells were prepared at 2×10^5 cells/ml for adding 5000 cell/well and incubate plates containing compounds+cells for 1 hour at 37° C. Prepare IL-23 (treatment at final conc. 0.1 ng/mL) during incubation and add 2 ul per well of prepared cytokine in media to appropriate wells. The plate is incubated for overnight at 37° C. The next day, QUANTI-Blue solution is prepared. 18 ul of QUANTI-Blue solution per well is added into a new 384-well clear flat bottom plate, then add 2 ul of induced and treated HEK-Blue cell supernatant from overnight plate. Incubate the plate at 37° C. for 2 hours and determine SEAP levels.

[3] = HEK-Blue IL-23, HEK-Blue IL-23 cells

T1 sequence (P29597 589-875 limits assumed): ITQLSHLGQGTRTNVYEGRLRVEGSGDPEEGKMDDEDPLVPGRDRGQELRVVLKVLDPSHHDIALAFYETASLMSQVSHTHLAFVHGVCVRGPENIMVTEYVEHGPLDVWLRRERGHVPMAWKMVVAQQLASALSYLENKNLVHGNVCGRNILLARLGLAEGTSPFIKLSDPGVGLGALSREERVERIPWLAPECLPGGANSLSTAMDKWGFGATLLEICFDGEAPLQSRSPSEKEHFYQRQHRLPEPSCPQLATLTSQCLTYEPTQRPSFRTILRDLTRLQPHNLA

Row | SMILES | IC50 [1] [nM] | IC50 ([2]; HEK-Blue IL-23 cells) [nM] | IC50 [2, 3] [nM]
1 | CNc1cc(Nc2cccc3c2OCCC3)nn2c(C(=O)NC3CCn4ccnc43)cnc12 (stereo not drawn) [Compound 6, 6-(chroman-8-ylamino)-N-(6,7-dihydro-5H-pyrrolo[1,2-a]imidazol-7-yl)-8-(methylamino)imidazo[1,2-b]pyridazine-3-carboxamide] | < 10 |  | < 10
2 | CNc1cc(Nc2cccn(-c3ccccn3)c2=O)nn2c(C(=O)NC3CCc4conc43)cnc12 (stereo not drawn) [Compound 7, N-(5,6-dihydro-4H-cyclopenta[c]isoxazol-6-yl)-8-(methylamino)-6-((2-oxo-2H-[1,2′-bipyridin]-3-yl)amino)imidazo[1,2-b]pyridazine-3-carboxamide] | < 10 |  | < 10
3 | [2H]c1onc2c1CCC2NC(=O)c1cnc2c(NC)cc(Nc3cccn(-c4ccccn4)c3=O)nn12 (stereo not drawn) [Compound 8, N-(5,6-dihydro-4H-cyclopenta[c]isoxazol-6-yl-3-d)-8-(methylamino)-6-((2-oxo-2H-[1,2′-bipyridin]-3-yl)amino)imidazo[1,2-b]pyridazine-3-carboxamide] | < 10 |  | < 10
4 | CNc1cc(Nc2cccn(-c3ccccn3)c2=O)nn2c(C(=O)NC3CCc4scnc43)cnc12 (stereo not drawn) [Compound 9, N-(5,6-dihydro-4H-cyclopenta[d]thiazol-4-yl)-8-(methylamino)-6-((2-oxo-2H-[1,2′-bipyridin]-3-yl)amino)imidazo[1,2-b]pyridazine-3-carboxamide] | < 10 |  | < 10
5 | CNc1cc(Nc2cccn(C3CCC4(CC3)COC4)c2=O)nn2c(C(=O)N[C@@H]3C[C@H]4CCO[C@H]43)cnc12 [Compound 12, N-((1R,5S,7R)-2-oxabicyclo[3.2.0]heptan-7-yl)-8-(methylamino)-6-((2-oxo-1-(2-oxaspiro[3.5]nonan-7-yl)-1,2-dihydropyridin-3-yl)amino)imidazo[1,2-b]pyridazine-3-carboxamide] | < 10 |  | < 10
6 | CNc1cc(Nc2cccn(C3C[C@H]4CC[C@@H](C3)O4)c2=O)nn2c(C(=O)N[C@@H]3C[C@H]4CCO[C@H]43)cnc12 (stereo partly drawn) [Compound 13, 6-((1-(cis-8-oxabicyclo[3.2.1]octan-3-yl)-2-oxo-1,2-dihydropyridin-3-yl)amino)-N-((1R,5S,7R)-2-oxabicyclo[3.2.0]heptan-7-yl)-8-(methylamino)imidazo[1,2-b]pyridazine-3-carboxamide] | 10 to 100 |  | < 10
7 | [2H]C([2H])([2H])Nc1cc(Nc2cccn([C@@H]3C[C@H]4CCO[C@H]43)c2=O)nn2c(C(=O)N[C@@H]3C[C@H]4CCO[C@H]43)cnc12 [Compound 14, 6-((1-((1R,5S,7R)-2-oxabicyclo[3.2.0]heptan-7-yl)-2-oxo-1,2-dihydropyridin-3-yl)amino)-N-((1R,5S,7R)-2-oxabicyclo[3.2.0]heptan-7-yl)-8-((methyl-d3)amino)imidazo[1,2-b]pyridazine-3-carboxamide] | < 10 |  | < 10
8 | CNc1cc(Nc2cccn(-c3ccccn3)c2=O)nc2c(C(=O)NC3CCn4ncnc43)cnn12 (stereo not drawn) [Compound 17, N-(6,7-dihydro-5H-pyrrolo[1,2-b][1,2,4]triazol-7-yl)-7-(methylamino)-5-((2-oxo-2H-[1,2′-bipyridin]-3-yl)amino)pyrazolo[1,5-a]pyrimidine-3-carboxamide] | 10 to 100 |  | 10 to 100
9 | CNc1cc(Nc2cccn(-c3ccccn3)c2=O)nc2c(C(=O)NC3CCn4ccnc43)cnn12 (stereo not drawn) [Compound 18, N-(6,7-dihydro-5H-pyrrolo[1,2-a]imidazol-7-yl)-7-(methylamino)-5-((2-oxo-2H-[1,2′-bipyridin]-3-yl)amino)pyrazolo[1,5-a]pyrimidine-3-carboxamide] | < 10 |  | < 10
10 | [2H]C([2H])([2H])Nc1cc(Nc2cccn([C@H]3C[C@H](OC([2H])([2H])[2H])C3)c2=O)nc2c(C(=O)N[C@@H]3C[C@H]4CCO[C@H]43)cnn12 [Compound 19, N-((1R,5S,7R)-2-oxabicyclo[3.2.0]heptan-7-yl)-5-((1-((1r,3r)-3-(methoxy-d3)cyclobutyl)-2-oxo-1,2-dihydropyridin-3-yl)amino)-7-((methyl-d3)amino)pyrazolo[1,5-a]pyrimidine-3-carboxamide] | 10 to 100 |  | 10 to 100
11 | CNc1cc(Nc2cccc3c2OCCC3)nn2c(C(=O)NCc3ncco3)cnc12 [Compound 20] | < 10 |  | < 10
12 | CNc1cc(Nc2cccc3c2OCCC3)nn2c(C(=O)NCc3nccn3C)cnc12 [Compound 21] | 10 to 100 |  | < 10
13 | CNc1cc(Nc2cccn(-c3ccccc3F)c2=O)nn2c(C(=O)N[C@@H]3C[C@H]4CCO[C@H]43)cnc12 [Compound 44] | 10 to 100 |  | < 10
14 | CNc1cc(Nc2cccn(-c3ccccc3)c2=O)nn2c(C(=O)N[C@@H]3C[C@H]4CCO[C@H]43)cnc12 [Compound 46] | 10 to 100 |  | < 10
15 | CNc1cc(Nc2cccn([C@H]3CC[C@H](OC)CC3)c2=O)nn2c(C(=O)N[C@@H]3C[C@H]4CCO[C@H]43)cnc12 [Compound 63] | < 10 |  | < 10
16 | [2H]C([2H])([2H])Nc1cc(Nc2cccn([C@H]3CC[C@@H](OC([2H])([2H])[2H])CC3)c2=O)nn2c(C(=O)N[C@@H]3C[C@H]4CCO[C@H]43)cnc12 [Compound 64] | 10 to 100 |  | 10 to 100

Second part, led by results:

Row | IC50 [1] [nM] | SMILES | IC50 ([2]; HEK-Blue IL-23 cells) [nM] | IC50 [2, 3] [nM]
17 | 10 to 100 | CNc1cc(Nc2cccn(C3CC4CCOC43)c2=O)nn2c(C(=O)N[C@@H]3C[C@@H]3F)cnc12 (single isomer, unassigned) [Compound 105c] | 10 to 100 | 
18 | 10 to 100 | CNc1cc(Nc2cccn(C3CC4CCOC43)c2=O)nn2c(C(=O)N[C@@H]3C[C@@H]3F)cnc12 (single isomer, unassigned) [Compound 105d] | < 10 | 
19 | 10 to 100 | CNc1cc(Nc2cccn(-c3ncccc3F)c2=O)nn2c(C(=O)N[C@@H]3C[C@H]4CCO[C@H]43)cnc12 [Compound 1, N-((1R,5S,7R)-2-oxabicyclo[3.2.0]heptan-7-yl)-6-((3′-fluoro-2-oxo-2H-[1,2′-bipyridin]-3-yl)amino)-8-(methylamino)imidazo[1,2-b]pyridazine-3-carboxamide] |  | < 10
20 | 10 to 100 | [2H]C([2H])([2H])Nc1cc(Nc2cccn(-c3ncccc3F)c2=O)nn2c(C(=O)N[C@@H]3C[C@H]4CCO[C@H]43)cnc12 [Compound 5, N-((1R,5S,7R)-2-oxabicyclo[3.2.0]heptan-7-yl)-6-((3′-fluoro-2-oxo-2H-[1,2′-bipyridin]-3-yl)amino)-8-((methyl-d3)amino)imidazo[1,2-b]pyridazine-3-carboxamide] |  | < 10
21 | 10 to 100 | [2H]C([2H])([2H])O[C@H]1CC[C@@H](n2cccc(Nc3cc(NC)c4ncc(C(=O)N[C@@H]5C[C@@H]5F)n4n3)c2=O)CC1 [Compound 15, N-((1R,2S)-2-fluorocyclopropyl)-6-((1-((1s,4s)-4-(methoxy-d3)cyclohexyl)-2-oxo-1,2-dihydropyridin-3-yl)amino)-8-(methylamino)imidazo[1,2-b]pyridazine-3-carboxamide hydrochloride] |  | 10 to 100
22 | 10 to 100 | CNc1cc(Nc2cccn([C@H]3CC[C@H](OC)CC3)c2=O)nn2c(C(=O)N[C@@H]3C[C@@H]3F)cnc12 [Compound 16, N-((1R,2S)-2-fluorocyclopropyl)-6-((1-((1r,4r)-4-methoxycyclohexyl)-2-oxo-1,2-dihydropyridin-3-yl)amino)-8-(methylamino)imidazo[1,2-b]pyridazine-3-carboxamide] |  | < 10
23 | 100 to 1000 | CNc1cc(Nc2cccn(-c3ccccc3F)c2=O)nn2c(C(=O)N[C@H]3C[C@@H]4CCO[C@@H]43)cnc12 [Compound 45] |  | ≥ 1000
24 | < 10 | [2H]C([2H])([2H])Nc1cc(Nc2cccn(-c3ccn(C)n3)c2=O)nn2c(C(=O)N[C@@H]3C[C@H]4CCO[C@H]43)cnc12 [Compound 52] |  | < 10
25 | 10 to 100 | [2H]C([2H])([2H])Nc1cc(Nc2cccn(-c3ccn(C([2H])([2H])[2H])n3)c2=O)nn2c(C(=O)N[C@@H]3C[C@H]4CCO[C@H]43)cnc12 [Compound 53] |  | < 10
26 | 10 to 100 | CNc1cc(Nc2cccn(-c3nn(C)cc3F)c2=O)nn2c(C(=O)N[C@@H]3C[C@H]4CCO[C@H]43)cnc12 [Compound 54] |  | < 10
27 | 10 to 100 | CNc1cc(Nc2cccn(-c3cc(C)n(C)n3)c2=O)nn2c(C(=O)N[C@@H]3C[C@H]4CCO[C@H]43)cnc12 [Compound 55] |  | 10 to 100
28 | 10 to 100 | [2H]C([2H])([2H])Nc1cc(Nc2cccn(-c3ccn(C)n3)c2=O)nn2c(C(=O)N[C@@H]3C[C@@H]3F)cnc12 [Compound 57] |  | 10 to 100
29 | 10 to 100 | [2H]C([2H])([2H])n1ccc(-n2cccc(Nc3cc(NC)c4ncc(C(=O)N[C@@H]5C[C@@H]5F)n4n3)c2=O)n1 [Compound 58] |  | 10 to 100
30 | 10 to 100 | [2H]C([2H])([2H])Nc1cc(Nc2cccn(-c3ccn(C([2H])([2H])[2H])n3)c2=O)nn2c(C(=O)N[C@@H]3C[C@@H]3F)cnc12 [Compound 59] |  | < 10
